Experimental data: patent publication US20250129012A1, “ANTI-INFLAMMATORY AND ANALGESIC COMPOUNDS AND USE THEREOF” (JIANGSU ATOM BIOSCIENCE AND PHARMACEUTICAL CO., LTD., priority 2021, published 2025)
Marks after values point to notes of the source that are not given here.

How the values were obtained:
Type in all cases: in vivo, SD rats
[1] = tested on: gouty arthritis in rats (urate crystals, left ankle joint); assay: Pharmacodynamics experiment A on gouty arthritis in rats: paw volume; details: for Paw volume versus model group, in words: time points after modeling; for Paw volume: Mean ± SEM
Procedure: (§1) Compounds 2, 17, 26 and 27 were prepared by grinding with 0.5% CMC-Na into a suspension of the corresponding concentration (0.06 mg/mL) for gavage before administration, and the volume of administration was 10 mL/kg. […] Before use, 0.5% CMC-Na was used for grinding and prepared into a suspension of the corresponding concentration (0.06 mg/mL) for gavage, and the volume of drug administered was 10 mL/kg.
(§2) Each group of subjects was prepared into a suspension of the corresponding concentration, and the administration volume was 10 mL/kg.
(§3) The crystalline arthritis model was prepared by intra-articular injection of urate crystals (40 mg/mL, in the left ankle joint of each rat). Different doses of the test drug were given separately by gavage administration. The day of administration was defined as day 1 of the experiment, and the drug was administered once a day for 10 consecutive days (pre-administration of the drug for 7 days prior to modeling, modeling on day 8, and continuation of the drug for 3 days). The experiment ended on day 10.
Paw volume was measured before administration, before urate injection, and 2, 4, 8, 10, 24, and 48 h after injection.
(§4) The data obtained from the experiment were statistically analyzed using IBM SPSS Statistics 22.0. All measurements were expressed as Mean±S.E.M s. The data were analyzed using SPSS 22.0 statistical software and variance chi-square test was performed on the parameters.

[2] = tested on: gouty arthritis in rats (urate crystals, left ankle joint); assay: Pharmacodynamics experiment A on gouty arthritis in rats: gait score; design: Gait Score: scale not given here; details: 0.6 mg/kg gavage; for Gait versus model group, in words: time points after modeling, P<0.05 or P<0.01; for Gait Score: Mean ± SEM
Procedure: as §1, §2, §3
The degree of lameness of the modeled joints was observed and scored at the same time point.
as §4

[3] = tested on: gouty arthritis in rats (urate crystals, left ankle joint); assay: Pharmacodynamics experiment A on gouty arthritis in rats: pain score; design: Pain score: scale not given here; details: 0.6 mg/kg gavage; for Pain versus model group, in words: time points after modeling, P<0.05 or P<0.01; for Pain score: Mean ± SEM
Procedure: as §1, §2, §3
The pain level was scored using the flexion and extension joint pain test scoring method at the same time point.
as §4

TNF-α = assay: Inflammatory factor experiment A: TNF-α in gouty arthritis rats; details: synovial tissue of knee joints; dose 0.6 mg/kg gavage; day 10
Procedure: (§5) Compounds 14, 17 and 26 were prepared by grinding with 0.5% CMC-Na before administration and into a suspension for gavage at the corresponding concentration (0.06 mg/mL), with a dosage volume of 10 mL/kg. Colchicine, purchased from Sun Chemical Technology (Shanghai) Co., Ltd. with batch no. 49ETRRAS, and was prepared by grinding with 0.5% CMC-Na before administration and into a suspension for gavage at the corresponding concentration (0.06 mg/mL), with a dosage volume of 10 mL/kg.
(§6) The compounds in each group were prepared into a suspension of the corresponding concentration, and the dosage volume was 10 mL/kg.
as §3, with “(40 mg/mL” for “(40 mg/mL,”, “test compounds” for “test drug”, “the compounds were” for “the drug was”, “10. […]” for “10.”

IL-6 = assay: Inflammatory factor experiment A: IL-6 in gouty arthritis rats; details: synovial tissue of knee joints; dose 0.6 mg/kg gavage; day 10
Procedure: as §5, §6
as §3, with “(40 mg/mL” for “(40 mg/mL,”, “test compounds” for “test drug”, “the compounds were” for “the drug was”, “10. […]” for “10.”

[4] = 2 h after modeling, 0.6 mg/kg gavage
[5] = 4 h after modeling, 0.6 mg/kg gavage
[6] = 8 h after modeling, 0.6 mg/kg gavage
[7] = 10 h after modeling, 0.6 mg/kg gavage
[8] = 24 h after modeling, 0.6 mg/kg gavage
[9] = 48 h after modeling, 0.6 mg/kg gavage
[10] = before modeling, 0.6 mg/kg gavage once a day

| SMILES | Paw volume versus model group, in words ([1]; 0.6 mg/kg gavage) | Paw volume [1, 4] | Paw volume [1, 5] | Paw volume [1, 6] | Paw volume [1, 7] [cm^3] | Paw volume [1, 8] | Paw volume [1, 9] | Paw volume [1, 10] [cm^3] | Gait versus model group, in words [2] | Gait Score ([2]; 2 h after modeling) | Gait Score ([2]; 4 h after modeling) | Gait Score ([2]; 8 h after modeling) | Gait Score ([2]; 10 h after modeling) | Gait Score ([2]; 24 h after modeling) | Gait Score ([2]; 48 h after modeling) | Gait Score ([2]; before modeling) | Pain versus model group, in words [3] | Pain score ([3]; 2 h after modeling) | Pain score ([3]; 4 h after modeling) | Pain score ([3]; 8 h after modeling) | further results |
| --- | --- | --- | --- | --- | --- | --- | --- | --- | --- | --- | --- | --- | --- | --- | --- | --- | --- | --- | --- | --- | --- |
| COc1cc2c(c(OC)c1OC)-c1cc(C)c(=O)c(OC)cc1[C@@H](NC(C)=O)CC2 [Compound 17, (S)—N-(1,2,3,9-tetramethoxy-11-methyl-10-oxo-5,6,7,10-tetrahydrobenzo[a]heptalen-7-yl)acetamide] | significantly reduce the paw volume at 2 h, 8 h, 24 h, and 48 h | 2.54 ± 0.02** cm^3 | 2.58 ± 0.02 cm^3 | 2.54 ± 0.04* cm^3 | 2.55 ± 0.03 | 2.41 ± 0.05** cm^3 | 2.23 ± 0.03*** cm^3 | 2.19 ± 0.03 | significantly improved the gait at 2 h, 8 h, and 24 h | 1.00 ± 0.00 | 1.20 ± 0.13 | 1.00 ± 0.00 | 1.10 ± 0.10 | 1.10 ± 0.10 | 1.10 ± 0.10 | 0.00 ± 0.00 | significantly improved gait at 2 h, 8 h, and 24 h | 3.10 ± 0.64 | 3.20 ± 0.66 | 3.00 ± 0.68 | Pain score ([3]; 10 h after modeling): 3.30 ± 0.54; Pain score ([3]; 24 h after modeling): 1.30 ± 0.65; Pain score ([3]; 48 h after modeling): 1.60 ± 0.70; Pain score ([3]; before modeling): 0.00 ± 0.00; Decreased TNF-α percentage % (TNF-α): 107.16%; Decreased IL-6 percentage % (IL-6): 132.54% |
| COc1cc2c(c(OC)c1OC)-c1ccc(OC3CCOC3)c(=O)cc1[C@@H](NC(C)=O)CC2 (stereo partly drawn) [Compound 26, (S)—N-(1,2,3-trimethoxy-9-oxo-10-[(tetrahydrofuran-3-yl)oxy]-5,6,7,9-tetrahydrobenzo[a]heptalen-7-yl)acetamide] | significantly reduce the paw volume at 2 h, 4 h, and 48 h | 2.53 ± 0.04* cm^3 | 2.54 ± 0.03* cm^3 | 2.55 ± 0.04 cm^3 | 2.57 ± 0.05 | 2.47 ± 0.06 cm^3 | 2.34 ± 0.07* cm^3 | 2.19 ± 0.04 | significantly improved the gait at 2 h, 8 h, and 24 h | 1.00 ± 0.00 | 1.10 ± 0.10 | 1.20 ± 0.13 | 1.30 ± 0.15 | 1.10 ± 0.10 | 1.10 ± 0.10 | 0.00 ± 0.00 | significantly improved gait at 2 h | 3.00 ± 0.56 | 2.90 ± 0.67 | 4.30 ± 0.40 | Pain score ([3]; 10 h after modeling): 3.80 ± 0.59; Pain score ([3]; 24 h after modeling): 3.20 ± 0.51; Pain score ([3]; 48 h after modeling): 2.20 ± 0.73; Pain score ([3]; before modeling): 0.00 ± 0.00; Decreased TNF-α percentage % (TNF-α): 160.36%; Decreased IL-6 percentage % (IL-6): 113.37% |
